Test results from ChEMBL document CHEMBL1123524, “Aminoglycoside antibiotics. 6. Chemical reactions of aminoglycosides with disodium carbenicillin” (1986).

Tests used:
Format in all cases: functional
[1] = tested on: Pseudomonas aeruginosa; experiment: Antibacterial activity expressed as MIC value was determined on Pseudomonas aeruginosa A-21509 organism
[2] = tested on: Providencia rettgeri; experiment: Antibacterial activity expressed as MIC value was determined on Proteus rettgeri A-21207 organism
[3] = tested on: Enterobacter cloacae; experiment: Antibacterial activity expressed as MIC value was determined on Enterobacter cloacae A-21006 organism
[4] = tested on: Escherichia coli; experiment: Antibacterial activity expressed as MIC value was determined on Escherichia coli A-22045 organism
[5] = tested on: Providencia rettgeri; experiment: Antibacterial activity expressed as MIC value was determined on Proteus rettgeri A-9637 organism
[6] = tested on: Staphylococcus aureus; experiment: Antibacterial activity expressed as MIC value was determined on Staphylococcus aureus A-9537 organism
[7] = tested on: Staphylococcus aureus; experiment: Antibacterial activity expressed as MIC value was determined on Staphylococcus aureus A-20240 organism
[8] = tested on: Enterobacter cloacae; experiment: Antibacterial activity expressed as MIC value was determined on Enterobacter cloacae A-21136 organism
[9] = tested on: Pseudomonas aeruginosa; experiment: Antibacterial activity expressed as MIC value was determined on Pseudomonas aeruginosa A-21508 organism
[10] = tested on: Escherichia coli; experiment: Antibacterial activity expressed as MIC value was determined on Escherichia coli A-9632 organism
[11] = tested on: Serratia marcescens; experiment: Antibacterial activity expressed as MIC value was determined on Serratia marcescens A-20019 organism
[12] = tested on: Staphylococcus aureus; experiment: Antibacterial activity expressed as MIC value was determined on Staphylococcus aureus A-22231 organism
[13] = tested on: Proteus mirabilis; experiment: Antibacterial activity expressed as MIC value was determined on Proteus mirabilis A-9900 organism
[14] = tested on: Pseudomonas aeruginosa; experiment: Antibacterial activity expressed as MIC value was determined on Pseudomonas aeruginosa A-20741 organism
[15] = tested on: Staphylococcus aureus; experiment: Antibacterial activity expressed as MIC value was determined on Staphylococcus aureus A-22058 organism
[16] = tested on: Escherichia coli; experiment: Antibacterial activity expressed as MIC value was determined on Escherichia coli A-20895 organism
[17] = tested on: Escherichia coli; experiment: Antibacterial activity expressed as MIC value was determined on Escherichia coli A-20697 organism
[18] = tested on: Pseudomonas aeruginosa; experiment: Antibacterial activity expressed as MIC value was determined on Pseudomonas aeruginosa A-20897 organism
[19] = tested on: Enterobacter cloacae; experiment: Antibacterial activity expressed as MIC value was determined on Enterobacter cloacae A-20364 organism
[20] = tested on: Pseudomonas aeruginosa; experiment: Antibacterial activity expressed as MIC value was determined on Pseudomonas aeruginosa A-21294 organism
[21] = tested on: Pseudomonas aeruginosa; experiment: Antibacterial activity expressed as MIC value was determined on Pseudomonas aeruginosa A-20717 organism
[22] = tested on: Escherichia coli; experiment: Antibacterial activity expressed as MIC value was determined on Escherichia coli A-21218 organism
[23] = tested on: Staphylococcus aureus; experiment: Antibacterial activity expressed as MIC value was determined on Staphylococcus aureus A-21978 organism
[24] = tested on: Klebsiella pneumoniae; experiment: Antibacterial activity expressed as MIC value was determined on Klebsiella pneumonia A-20468 organism
[25] = tested on: Pseudomonas aeruginosa; experiment: Antibacterial activity expressed as MIC value was determined on Pseudomonas aeruginosa A-20601 organism
[26] = tested on: Escherichia coli; experiment: Antibacterial activity expressed as MIC value was determined on Escherichia coli A-20732 organism
[27] = tested on: Providencia stuartii; experiment: Antibacterial activity expressed as MIC value was determined on Proteus stuartii A-21210 organism
[28] = tested on: Pseudomonas aeruginosa; experiment: Antibacterial activity expressed as MIC value was determined on Pseudomonas aeruginosa A-20653 organism
[29] = tested on: Escherichia coli; experiment: Antibacterial activity expressed as MIC value was determined on Escherichia coli A-20683 organism
[30] = tested on: Escherichia coli; experiment: Antibacterial activity expressed as MIC value was determined on Escherichia coli A-22356 organism
[31] = tested on: Escherichia coli; experiment: Antibacterial activity expressed as MIC value was determined on Escherichia coli A-20665 organism
[32] = tested on: Pseudomonas aeruginosa; experiment: Antibacterial activity expressed as MIC value was determined on Pseudomonas aeruginosa A-9834A organism
[33] = tested on: Pseudomonas aeruginosa; experiment: Antibacterial activity expressed as MIC value was determined on Pseudomonas aeruginosa A-22233 organism
[34] = tested on: Providencia stuartii; experiment: Antibacterial activity expressed as MIC value was determined on Proteus stuartii A-20894 organism
[35] = tested on: Staphylococcus aureus; experiment: Antibacterial activity expressed as MIC value was determined on Staphylococcus aureus A-22210 organism
[36] = tested on: Enterobacter cloacae; experiment: Antibacterial activity expressed as MIC value was determined on Enterobacter cloacae A-9656 organism

Compound | MIC [1] [µg/mL] | MIC [2] [µg/mL] | MIC [3] [µg/mL] | MIC [4] [µg/mL] | MIC [5] [µg/mL] | MIC [6] [µg/mL] | MIC [7] [µg/mL] | MIC [8] [µg/mL] | MIC [9] [µg/mL] | MIC [10] [µg/mL] | MIC [11] [µg/mL] | MIC [12] [µg/mL] | MIC [13] [µg/mL] | MIC [14] [µg/mL] | MIC [15] [µg/mL] | MIC [16] [µg/mL] | MIC [17] [µg/mL] | MIC [18] [µg/mL] | MIC [19] [µg/mL] | MIC [20] [µg/mL] | also measured
CC1(C)S[C@@H]2[C@H](NC(=O)C(C(=O)O)c3ccccc3)C(=O)N2[C@H]1C(=O)O.NC[C@H]1O[C@H](O[C@H]2[C@H](O)[C@@H](O[C@H]3O[C@H](CO)[C@@H](O)[C@H](N)[C@H]3O)[C@H](N)C[C@@H]2N)[C@H](N)C[C@@H]1O | > 250 | > 250 | > 250 | > 250 | 125 | 63 | > 250 | > 250 | 250 | > 250 | 250 | 63 | > 250 | > 250 | > 250 | > 250 | > 250 | > 250 | > 250 | > 250 | MIC [21]: > 250 µg/mL; MIC [22]: > 250 µg/mL; MIC [23]: > 250 µg/mL; MIC [24]: > 250 µg/mL; MIC [25]: > 250 µg/mL; MIC [26]: > 250 µg/mL; MIC [27]: > 250 µg/mL; MIC [28]: 250 µg/mL; MIC [29]: > 250 µg/mL; MIC [30]: > 250 µg/mL; MIC [31]: > 250 µg/mL; MIC [32]: 250 µg/mL; MIC [33]: > 250 µg/mL; MIC [34]: > 250 µg/mL; MIC [35]: > 250 µg/mL; MIC [36]: > 250 µg/mL
CC1(C)S[C@@H]2[C@H](NC(=O)C(C(=O)O)c3ccccc3)C(=O)N2[C@H]1C(=O)O.NC[C@H]1O[C@H](O[C@H]2[C@H](O)[C@@H](O[C@H]3O[C@H](CO)[C@@H](O)[C@H](N)[C@H]3O)[C@H](N)C[C@@H]2N)[C@H](O)[C@@H](O)[C@@H]1O | > 250 | > 250 | > 250 | > 250 | 250 | > 250 | > 250 | > 250 | > 250 | > 250 | > 250 | > 250 | > 250 | > 250 | > 250 | > 250 | > 250 | > 250 | > 250 | > 250 | MIC [21]: > 250 µg/mL; MIC [22]: > 250 µg/mL; MIC [23]: > 250 µg/mL; MIC [24]: > 250 µg/mL; MIC [25]: > 250 µg/mL; MIC [26]: > 250 µg/mL; MIC [27]: > 250 µg/mL; MIC [28]: > 250 µg/mL; MIC [29]: > 250 µg/mL; MIC [30]: > 250 µg/mL; MIC [31]: > 250 µg/mL; MIC [32]: > 250 µg/mL; MIC [33]: > 250 µg/mL; MIC [34]: > 250 µg/mL; MIC [35]: > 250 µg/mL; MIC [36]: > 250 µg/mL
